Test results published in article PMC4798942 (ACS chemical biology, 2015).
Where two headings read alike, the source gives them in different places. One block for each compound: values may come before it.

Legend:
Assay type in all cases: biochemical
[1] = molecular target: T1, human CP4H1 (collagen prolyl 4-hydroxylase 1, alpha(I)2beta2 holoenzyme) (Homo sapiens, UniProt P13674); assay: inhibition of CP4H1 activity in vitro; conditions: 100 µM compound
[2] = molecular target: T1, human CP4H1 (collagen prolyl 4-hydroxylase 1, alpha(I)2beta2 holoenzyme); assay: dose-response inhibition of CP4H1 hydroxylation activity
human PHD2 = human PHD2 (Homo sapiens, UniProt Q9GZT9); assay: inhibition of PHD2 activity in vitro
[3] = molecular target: T1, human CP4H1 (collagen prolyl 4-hydroxylase 1, alpha(I)2beta2 holoenzyme); assay: Lineweaver-Burk analysis of CP4H1 activity
[4] = Fe(II) and AKG dependent reaction

T1 sequence (P13674 18-534): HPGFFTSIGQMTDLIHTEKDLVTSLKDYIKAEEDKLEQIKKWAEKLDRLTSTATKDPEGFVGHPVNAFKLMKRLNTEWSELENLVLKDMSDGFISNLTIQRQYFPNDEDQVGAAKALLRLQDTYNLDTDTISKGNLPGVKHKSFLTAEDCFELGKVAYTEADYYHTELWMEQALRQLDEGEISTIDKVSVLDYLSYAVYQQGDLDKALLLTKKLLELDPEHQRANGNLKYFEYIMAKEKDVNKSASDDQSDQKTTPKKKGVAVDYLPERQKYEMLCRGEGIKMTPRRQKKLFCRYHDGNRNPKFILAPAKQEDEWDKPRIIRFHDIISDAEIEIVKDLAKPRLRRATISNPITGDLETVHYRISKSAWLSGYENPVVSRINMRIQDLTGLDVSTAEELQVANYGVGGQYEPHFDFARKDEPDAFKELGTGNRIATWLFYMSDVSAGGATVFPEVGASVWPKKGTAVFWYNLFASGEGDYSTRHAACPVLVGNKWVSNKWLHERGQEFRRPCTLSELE
T1 sequence (P07237 18-508 partner): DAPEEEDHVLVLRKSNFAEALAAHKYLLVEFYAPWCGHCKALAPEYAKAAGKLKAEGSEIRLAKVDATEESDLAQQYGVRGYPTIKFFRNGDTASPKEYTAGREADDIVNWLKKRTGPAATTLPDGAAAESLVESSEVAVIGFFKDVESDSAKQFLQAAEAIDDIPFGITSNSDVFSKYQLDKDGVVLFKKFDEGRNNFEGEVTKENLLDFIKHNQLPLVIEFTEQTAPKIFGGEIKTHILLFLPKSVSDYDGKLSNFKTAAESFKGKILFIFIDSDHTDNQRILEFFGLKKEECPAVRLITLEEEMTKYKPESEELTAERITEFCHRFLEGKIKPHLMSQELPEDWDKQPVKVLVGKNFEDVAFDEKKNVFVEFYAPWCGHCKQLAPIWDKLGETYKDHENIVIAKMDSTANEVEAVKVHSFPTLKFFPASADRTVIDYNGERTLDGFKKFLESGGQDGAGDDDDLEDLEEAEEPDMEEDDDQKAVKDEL
human PHD2, sequence (Q9GZT9 2-426): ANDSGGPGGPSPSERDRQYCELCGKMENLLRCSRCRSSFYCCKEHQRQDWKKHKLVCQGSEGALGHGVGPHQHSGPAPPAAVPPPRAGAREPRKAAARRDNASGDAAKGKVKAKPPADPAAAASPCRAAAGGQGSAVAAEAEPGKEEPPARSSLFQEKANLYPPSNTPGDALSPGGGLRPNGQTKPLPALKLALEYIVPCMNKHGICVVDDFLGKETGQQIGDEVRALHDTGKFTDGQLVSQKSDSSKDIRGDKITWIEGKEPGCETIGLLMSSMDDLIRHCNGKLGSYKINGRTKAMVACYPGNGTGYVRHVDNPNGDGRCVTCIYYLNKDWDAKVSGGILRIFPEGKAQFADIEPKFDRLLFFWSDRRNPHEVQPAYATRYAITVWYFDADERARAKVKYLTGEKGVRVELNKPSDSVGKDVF

SMILES: CCOC(=O)c1ccc(-c2ncc(C(=O)OCC)s2)nc1 [diethyl pythiDC]
inhibition at 100 μM [1]: No inhibition of catalysis by CP4H1 or PHD2 was observed in vitro with these diethyl esters

IC50 [2, 4]: 2.6 ± 0.1 µM
SMILES: O=C(O)c1ccc(-c2ncc(C(=O)O)[nH]2)nc1 [pyimDC]

IC50 [2, 4]: 33 ± 8 µM
SMILES: O=C(O)c1ccc(-c2ncc(C(=O)O)o2)nc1 [pyoxDC]

IC50 [2]: 4 ± 0.2 µM
Ki [3]: 0.39 ± 0.04 µM
SMILES: O=C(O)c1ccc(-c2ncc(C(=O)O)s2)nc1 [pythiDC, 2 (5-carboxythiazol-2-yl)pyridine-5-carboxylic acid]
inhibition (human PHD2): inhibit human PHD2 only weakly (Figure S4), with pythiDC displaying especially low potency
